What was measured:
[1] = tested on: statin-treated patients with a history of atherosclerosis or diabetes; assay: REDUCE-IT Example 3: total (first and subsequent) ischemic events (negative binomial, Andersen-Gill, Wei-Lin-Weissfeld Li-Lagakos, joint frailty; reduced and full dataset); assay type: in vivo, human; set-up: Relative risk reduction in total (first and subsequent) ischemic events for the primary composite endpoint / First events reduced by / Second events reduced by / Third events reduced by / Fourth or more events reduced by: concentration or dose not given beside the values
Source text: The following study was a multi-center, placebo-controlled clinical trial the details of which are described above in Example 1, the REDUCE-IT design. […] The main outcomes were total primary composite endpoint events defined as cardiovascular death, nonfatal myocardial infarction, nonfatal stroke, coronary revascularization, or hospitalization for unstable angina and total key secondary composite endpoint events defined as cardiovascular death, nonfatal myocardial infarction, or nonfatal stroke. In the context of this study, total events refer to any first event as well as any subsequent event. Differences in total events were determined using other statistical models, including Andersen-Gill, Wei-Lin-Weisfeld (Li and Lagakos), both pre-specified, and a post hoc and joint-frailty analysis.
For the present prespecified analysis, the primary outcome was the total of first plus subsequent ischemic events consisting of the composite of cardiovascular death, nonfatal myocardial infarction, nonfatal stroke, coronary revascularization, or hospitalization for unstable angina. […] Exploratory analyses of the total of first and subsequent events were also performed for the key secondary composite endpoint.
Baseline characteristics were compared between treatment groups using the chi-squared test for categorical variables and the Wilcoxon rank sum test for continuous variables. There are several methods for analyzing first and subsequent (recurrent) event data. As a pre-specified statistical method, a negative binomial regression was used to calculate rates and rate ratios for total cardiovascular events, which accounts for the variability in each patient's risk of events. As pre-specified supportive analyses, the modified Wei-Lin-Weissfeld method (Li and Lagakos modification) was used to calculate hazard ratios (HRs) for the time to the first event, second event, or third event. An additional pre-specified analysis, the Andersen-Gill model using a Cox proportional-hazard with the counting-process formulation was performed to model the total events. In addition, in order to account for informative censoring due to cardiovascular death, the HR for total non-fatal events was calculated using a joint frailty model (See Rondeau V. Joint frailty models for recurring events and death using maximum penalized likelihood estimation: application on cancer events. Biostatistics. 2007; 8:708-21). The joint frailty model simultaneously estimates hazard functions for non-fatal and fatal CV events and takes into account the fact that patients who are prone to have nonfatal events have an elevated risk of a cardiovascular death. The application of the joint frailty model used a gamma distribution for the frailty term.
Statistical analyses using the full adjudicated endpoint events dataset without exclusions using this bundling approach were also determined.

[2] = tested on: hypertriglyceridemic patients with cardiovascular disease or at high risk for cardiovascular disease; conditions: in vivo
Experimental: Specification of Variables and Procedures: Safety assessments included adverse events, clinical laboratory measurements (chemistry, hematology), 12-lead ECGs, vital signs (systolic and diastolic blood pressure, heart rate, respiratory rate, and body temperature), weight, waist circumference, and physical examinations as per Study Procedures in Table 1. […] All laboratory test results were evaluated by the investigator as to their clinical significance. Any observations at physical examinations or laboratory values considered by the investigator to be clinically significant were considered an adverse event.
An adverse event can therefore be any unfavorable and/or unintended sign (including an abnormal laboratory finding), symptom, or disease temporally associated with the use of an investigational medication product, whether or not related to the investigational medication product. All adverse events, including observed or volunteered problems, complaints, or symptoms, were recorded on the appropriate CRF. Each adverse event was evaluated for duration, intensity, and causal relationship with the study medication or other factors.
Serious Adverse Events: A serious adverse event (SAE) is defined as an adverse event that meets any of the following criteria: • Results in death; • Is life-threatening—The term “life-threatening” in the definition of “serious” refers to an event in which the patient was at risk of death at the time of the event. […] Important medical events that may not result in death, be life threatening, or require hospitalization were considered an SAE when, based upon appropriate medical judgment, they may have jeopardized the patient and may have required medical or surgical intervention to prevent one of the outcomes listed above.
Adverse Events of Special Interest: Bleeding-related adverse events, glucose control (fasting blood glucose and HbA1c), and indicators of hepatic disorders (e.g., ALT or AST increases >3×ULN, total bilirubin increases of ≥2×ULN) were summarized separately and compared between treatment groups.
Analysis of Safety: All analyses of safety were conducted on the safety population, which was defined as all randomized patients. The safety assessment was based on the frequency of adverse events, physical exams, vital signs and safety laboratory tests. AEs with new onset during the study between the initiation of study drug and 30 days after the last dose of study drug for each patient was considered treatment-emergent (TEAEs). This included any AE with onset prior to initiation of study drug and increased severity after the treatment initiation.
This included overall incidence rates (regardless of severity and relationship to study drug), and incidence rates for moderate or severe adverse events. A summary of SAEs and adverse events leading to early discontinuation (for ≥30 days) were presented through data listings. Patients who restarted study drug were included in the summary of AEs leading to discontinuation. Safety laboratory tests and vital signs were summarized by post-treatment change from baseline for each of the parameters using descriptive statistics by treatment group. Those patients with significant laboratory abnormalities were identified in data listings. Additional safety parameters were summarized in data listings.

[3] = Andersen-Gill (I), full dataset, adjusted for stratification factors, vs placebo
[4] = Andersen-Gill (I), full dataset, vs placebo
[5] = Andersen-Gill (I), reduced dataset, adjusted for stratification factors, vs placebo
[6] = Andersen-Gill (I), reduced dataset, vs placebo
[7] = Andersen-Gill (II), full dataset, adjusted for stratification factors, vs placebo
[8] = Andersen-Gill (II), full dataset, vs placebo
[9] = Andersen-Gill (II), reduced dataset, adjusted for stratification factors, vs placebo
[10] = Andersen-Gill (II), reduced dataset, vs placebo
[11] = Wei-Lin-Weissfeld model (Li and Lagakos)
[12] = modified WLW, full dataset, adjusted for stratification factors, vs placebo
[13] = modified WLW, full dataset, vs placebo
[14] = negative binomial, full dataset, adjusted for stratification factors, vs placebo
[15] = negative binomial, full dataset, vs placebo
[16] = negative binomial, reduced dataset, adjusted for stratification factors, vs placebo
[17] = negative binomial, reduced dataset, vs placebo
[18] = number of events, icosapent ethyl arm N = 4089, full dataset
[19] = number of events, after reduction
[20] = number of events, multiple endpoints in a single calendar day handled as a single event
[21] = share of overall events in the category, after reduction

## CC/C=C\C/C=C\C/C=C\C/C=C\C/C=C\CCCC(=O)OCC [Icosapent Ethyl, eicosapentaenoic acid ethyl ester]
[1]; [3]
  Adjusted HR, key secondary composite endpoint: 0.71
  Adjusted HR, primary composite endpoint: 0.68
[1]; [4]
  Unadjusted HR, key secondary composite endpoint: 0.71
  Unadjusted HR, primary composite endpoint: 0.68
[1]; [5]
  Adjusted HR, total key secondary composite endpoint events: 0.72
  Adjusted HR, total primary composite endpoint events: 0.69
[1]; [6]
  Unadjusted HR, total key secondary composite endpoint events: 0.72
  Unadjusted HR, total primary composite endpoint events: 0.69
[1]; [7]
  Adjusted HR, key secondary composite endpoint: 0.71
  Adjusted HR, primary composite endpoint: 0.68
[1]; [8]
  Unadjusted HR, key secondary composite endpoint: 0.71
  Unadjusted HR, primary composite endpoint: 0.68
[1]; [9]
  Adjusted HR, total key secondary composite endpoint events: 0.72
  Adjusted HR, total primary composite endpoint events: 0.69
[1]; [10]
  Unadjusted HR, total key secondary composite endpoint events: 0.72
  Unadjusted HR, total primary composite endpoint events: 0.69
[1]; FIG. 38
  Cardiovascular deaths prevented per 1000 patients treated for five years: 12
  Coronary revascularizations prevented per 1000 patients treated for five years: 76
  Episodes of hospitalization for unstable angina prevented per 1000 patients treated for five years: 16
  Myocardial infarctions prevented per 1000 patients treated for five years: 42
  Strokes prevented per 1000 patients treated for five years: 14
[1]; [11]
  First occurrence of primary composite endpoint: HR vs placebo: 0.75
  Second occurrence of primary composite endpoint: HR vs placebo: 0.68
[1]; in vivo
  First events reduced by: 25%
  Fourth or more events reduced by: 48%
  Relative risk reduction in total (first and subsequent) ischemic events for the primary composite endpoint: 30%
  Second events reduced by: 32%
  Third events reduced by: 31%
[1]; [12]
  Adjusted HR, key secondary composite endpoint, first event: 0.74
  Adjusted HR, key secondary composite endpoint, second event: 0.75
  Adjusted HR, key secondary composite endpoint, third event: 0.79
  Adjusted HR, primary composite endpoint, first event: 0.75
  Adjusted HR, primary composite endpoint, second event: 0.68
  Adjusted HR, primary composite endpoint, third event: 0.70
[1]; [13]
  Unadjusted HR, key secondary composite endpoint, first event: 0.74
  Unadjusted HR, key secondary composite endpoint, second event: 0.75
  Unadjusted HR, key secondary composite endpoint, third event: 0.79
  Unadjusted HR, primary composite endpoint, first event: 0.76
  Unadjusted HR, primary composite endpoint, second event: 0.69
  Unadjusted HR, primary composite endpoint, third event: 0.70
[1]; negative binomial model
  Total key secondary endpoint events: rate ratio (RR) vs placebo: 0.72
  Total primary endpoint events: rate ratio (RR) vs placebo: 0.70
[1]; [14]
  Adjusted RR, key secondary composite endpoint: 0.71
  Adjusted RR, primary composite endpoint: 0.69
[1]; [15]
  Unadjusted RR, key secondary composite endpoint: 0.71
  Unadjusted RR, primary composite endpoint: 0.67
[1]; [16]
  Adjusted RR, total key secondary composite endpoint events: 0.72
  Adjusted RR, total primary composite endpoint events: 0.70
[1]; [17]
  Unadjusted RR, total key secondary composite endpoint events: 0.71
  Unadjusted RR, total primary composite endpoint events: 0.68
[1]; [18]
  Total events before reduction, key secondary endpoint: 590 n
  Total events before reduction, primary endpoint: 1185 n
[1]; [19]
  Fatal events, key secondary endpoint: 174 n
  Fatal events, primary endpoint: 174 n
  Non-fatal events, key secondary endpoint: 384 n
  Non-fatal events, primary endpoint: 902 n
[1]; [20]
  Total events after reduction, key secondary endpoint: 558 n
  Total events after reduction, primary endpoint: 1076 n
[1]; [21]
  Fatal events, key secondary endpoint: 45.0%
  Fatal events, primary endpoint: 45.0%
  Total events after reduction, primary endpoint: 41.0%
[1]; share of overall events in the category, icosapent ethyl arm N = 4089
  Total events before reduction, key secondary endpoint: 42.0%
[2]; human
  TEAE Upper respiratory tract infection: 312 (7.6%) n (%)
  TEAE Urinary tract infection: 253 (6.2%) n (%)
[2]
  Fatal bleeding events: no fatal bleeding events
